Measurements taken from patent US20260265329A1, “POLYPEPTIDE AND DERIVATIVE THEREOF, COMPOSITION, AND USE THEREOF” (HANGZHOU SCIWIND BIOSCIENCES CO., LTD., priority 2023, published 2026).
Starred links: 1 amine or outer side, 2 acyl side, 3 side chain; linkers in the order of their positions; H or OH if unused. Non-standard residues stand in square brackets, D forms with d. Residues, ends and D or L forms follow the SMILES beside them. *: point of attachment. C20 diacid = O=C(O)CCCCCCCCCCCCCCCCCCC(=O)*; γGlu = O=C(O)[C@H](CCC(=O)[*:2])N[*:1]; Hyp = O=C(O)[C@@H]1C[C@@H](O)CN1

Experiments:
[1] = Animal study in SD rats (Example 4), weight change and food consumption; format: in vivo; conditions: 30 nmol/kg subcutaneous (FIGS. 2A, 2B)
Procedure: SPF male SD rats (7-8 weeks, 200-250 g) were employed in this study after health inspection and quarantine. The experimental animals were exposed to a room temperature of 20° C.-23° C. and a relative humidity of 40%-50%, and were provided with Co60 mouse reproduction feed 1035 and purified water supplied with water feeding bottles for free intake throughout the health inspection and quarantine and the study. Based on their mean body weight, 5 rats were assigned to each testing group for the derivatives. The rats were subcutaneously administered the derivatives at a dose of 30 nmol/kg or a vehicle (PBS pH7.4), and the dosing timepoint was recorded for each group. After dosing, the rats were put back into cages where they lived and could have access to food and water. Food consumption and weight change of the rats were recorded online or manually every 24 hours.

human amylin receptors = target: T1, human amylin receptors (Homo sapiens, UniProt O60896+P30988); assay: Luciferase assay in stably transfected amylin receptor/CRE-luc CHO cell line; format: cell-based; conditions: for Relative activity: EC50 ratio of Cagrilintide to the compound, Cagrilintide 100%; for EC50: amylin receptor/CRE-luc CHO cells, 24 hours incubation, luminescence
T1 construct: host or cells: CHO-K1/Ga15/AMY3 cells, further stably transfected with a CRE-luciferase plasmid
T1 sequence (P30988 25-474): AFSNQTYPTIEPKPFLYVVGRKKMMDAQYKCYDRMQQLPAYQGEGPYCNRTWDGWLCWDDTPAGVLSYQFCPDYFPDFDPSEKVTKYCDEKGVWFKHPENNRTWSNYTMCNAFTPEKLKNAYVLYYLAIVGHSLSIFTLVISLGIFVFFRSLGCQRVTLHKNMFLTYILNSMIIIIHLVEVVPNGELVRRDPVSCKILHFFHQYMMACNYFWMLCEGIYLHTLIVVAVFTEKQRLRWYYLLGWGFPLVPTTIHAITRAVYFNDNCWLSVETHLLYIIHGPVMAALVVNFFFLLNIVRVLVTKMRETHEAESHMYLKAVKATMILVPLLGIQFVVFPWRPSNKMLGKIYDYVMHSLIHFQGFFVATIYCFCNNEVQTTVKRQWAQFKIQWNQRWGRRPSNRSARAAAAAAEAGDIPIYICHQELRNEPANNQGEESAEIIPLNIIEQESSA
T1 sequence (O60896 24-148 partner): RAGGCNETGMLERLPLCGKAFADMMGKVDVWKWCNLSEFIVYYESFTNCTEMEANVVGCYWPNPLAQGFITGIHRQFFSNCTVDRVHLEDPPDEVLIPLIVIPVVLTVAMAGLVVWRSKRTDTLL

[2] = Heat accelerated stability assay, 40° C., detection on 7 d and 28 d; format: physicochemical
Method in brief: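 Derivatives at 1 mg/mL in water with sodium dihydrogen phosphate (1.42 mg/mL), pH about 7.4, sterile-filtered, stored sealed at 40° C. On days 7 and 28, appearance noted; after centrifugation, supernatant concentration and purity measured by reversed-phase HPLC at 214 nm (water/0.05% TFA–acetonitrile gradient).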

[3] = Heat accelerated stability assay, 40° C., detection on 10 d and 20 d; format: physicochemical; conditions: 1 mg/mL, pH about 7.4, 40° C.
Method in brief: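 Polypeptide derivatives at 1 mg/mL with sodium dihydrogen phosphate (1.42 mg/mL) in water, pH ~7.4, sterile-filtered and held at 40° C. Sampled at 10 d and 20 d, centrifuged, and supernatant analysed by HPLC (214 nm, 25° C., phosphate pH 5.8/ACN gradient) for concentration and purity.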

[4] = Efficacy assay in DIO SD rats, dose-dependent study (Example 6); format: in vivo
Procedure: SPF male DIO SD rats (36-37 weeks, […], fed with high-fat diet for 34 weeks from 3-week age on) were employed in this study. The experimental animals were exposed to a room temperature of 20° C.-23° C. and a relative humidity of 40%-50%, and were provided with high-fat diet D12492 and purified water supplied with water feeding bottles for free intake throughout the construction of the DIO animal model and the study. Based on their mean body weight, the animals were assigned to 6 groups designated as B1-B6 (n=5). Administration via subcutaneous injection was conducted once a day for 10 continuous days, wherein the first day of administration was designated as Day 1 (D1), and on Day 0, the initial body weight of the animals were recorded and the initial feed was added, and on Day 1-Day 11, the body weight of the studied animals as well as the remaining food were recorded daily for calculating the percentage of weight change and the amount of food intake, any anomalies during which were required to be recorded and reported. During the study, the rats were in good condition and no anomaly was observed. Weight change=(BWDn−BWD1)/BWD1*100%, wherein BW represented the value of body weight, and D1 and Dn represented the first and Nth days of administration respectively. Dots in the figures were represented utilizing mean±standard error of the mean (SEM). Accumulated food intake was the total amount of food intake for animals of each group prior to a certain time point post dose.

[5] = Efficacy assay in SD rats, dose-dependent study (Example 5); format: in vivo
Procedure: SPF male SD rats (7-8 weeks, 220-230 g) were employed in this study after health inspection and quarantine. The experimental animals were exposed to a room temperature of 20° C.-23° C. and a relative humidity of 40%-50%, and were provided with Co60 mouse reproduction feed 1035 and purified water supplied with water feeding bottles for free intake throughout the health inspection and quarantine and the study. […] Using a single dose administered via subcutaneous injection, the study lasted for a total of 6 days with the day of administration designated as Day 1/Time 0 (TO), wherein on Day 0, the initial body weight of the animals were recorded and the initial feed was added, and on Day 1-Day 5, the body weight of the studied animals as well as the remaining food were recorded daily for calculating the percentage of weight change and the amount of food intake, any anomalies during which were required to be recorded and reported. During the study, the rats were in good condition and no anomaly was observed. Weight change=(BWTn−BWT0)/BWT0* 100%, wherein BW represented the value of body weight, and T0 and Tn represented the time points of dosing and n hours post dose respectively. Dots in the figures were represented utilizing mean±standard error of the mean (SEM). Accumulated food intake was the total amount of food intake for each of the animals prior to a certain time point post dose.

in vivo = assay: in vivo; design: species or system SD rats; conditions: male, SD, rat, sc, 1 mg/kg
Procedure: The animals received a subcutaneous injection of corresponding compounds for testing (1 mg/kg and 5 ml/kg), and the day of administration was designated as D1. The whole blood of the animals was collected pre dose (-10 min) on D1 and post dose at D1-2h, D1-4h, D1-6h, D2-24h, D3-48h, D4-72h, D5-96h, and D6-120 h and was processed into plasma (using EDTA for anticoagulation). Liquid chromatography-tandem mass spectrometry (LC-MS/MS) was used to detect the concentration of drug molecules in the plasma, and GraphPad Prism 10 was utilized to plot a concentration-time curve for the drugs whose pharmacokinetic parameters including Cmax, Tmax, T1/2, AUC, and MRT were then calculated with PKSolver.

[6] = background statement; cited from earlier work
[7] = subcutaneous once a day for 10 days, 3 and 10 nmol/kg (FIGS. 4A, 4B)
[8] = single subcutaneous dose 10, 30, 100 nmol/kg (FIGS. 3A-3D)

With CC[C@H](C)[C@H](NC(=O)[C@H](CC(=O)O)NC(=O)[C@H](CCCNC(=N)N)NC(=O)[C@H](CC(=O)O)NC(=O)[C@H](CCCNC(=N)N)NC(=O)[C@H](CC(=O)O)NC(=O)[C@@H](NC(=O)[C@H](Cc1ccccc1)NC(=O)[C@H](Cc1c[nH]cn1)NC(=O)[C@H](CCCNC(=N)N)NC(=O)[C@H](CC(C)C)NC(=O)[C@H](Cc1ccccc1)NC(=O)[C@H](CC(=O)O)NC(=O)[C@H](C)NC(=O)[C@H](CC(C)C)NC(=O)[C@H](CCCNC(=N)N)NC(=O)[C@H](CCC(N)=O)NC(=O)[C@@H](NC(=O)[C@H](C)NC(=O)[C@H](C)NC(=O)[C@@H](NC(=O)[C@H](CO)NC(=O)[C@H](CC(C)C)NC(=O)[C@H](CCC(N)=O)NC(=O)[C@H](CO)NC(=O)[C@H](C)NC(=O)CC[C@H](NC(=O)CCCCCCCCCCCCCCCCCCC(=O)O)C(=O)O)[C@@H](C)O)[C@@H](C)O)[C@@H](C)O)C(=O)N[C@@H](CC(C)C)C(=O)N1CCC[C@H]1C(=O)N1CCC[C@H]1C(=O)N[C@H](C(=O)N[C@@H](CC(N)=O)C(=O)N[C@H](C(=O)NCC(=O)N[C@@H](CO)C(=O)N[C@@H](CC(N)=O)C(=O)N[C@H](C(=O)N1CCC[C@H]1C(N)=O)[C@@H](C)O)C(C)C)[C@@H](C)O [M6] ({C20 diacid-γGlu}-ASQLSTAATQRLADFLRHFTDRDRDILPPTNVGSNTP-NH2) the “Activity on weight loss and food intake compared with Cagrilintide” value [1] was “the most active one with an activity notably higher than Cagrilintide”, the Relative activity (human amylin receptors) was 62% and the EC50 (human amylin receptors) was 0.042 nM. For the same molecule, the “Purity from the reversed phase chromatography-214 nm, 0 d” value ([2]; 1 mg/mL, pH about 7.4, 40° C., 0 d) was 91.52, the “Purity from the reversed phase chromatography-214 nm, 7 d” value ([2]; 1 mg/mL, pH about 7.4, 40° C., 7 d) was 90.98 and the “Purity from the reversed phase chromatography-214 nm, 28 d” value ([2]; 1 mg/mL, pH about 7.4, 40° C., 28 d) was 92.33. For the same molecule, the “Change of spectra of reversed phase chromatography after heat acceleration” value ([2]; after 7 days or even 1 month, 40° C. (FIG. 1)) was “almost no change”, the “Change (7 d − 0 d)” value ([2]; purity on 7 d − purity on 0 d, 40° C., pH about 7.4) was −0.54 and the “Change (28 d − 0 d)” value ([2]; purity on 28 d − purity on 0 d, 40° C., pH about 7.4) was 0.81.
With CC[C@H](C)[C@H](NC(=O)[C@@H]1CCCN1C(=O)[C@H](CCCCN)NC(=O)[C@H](CC(C)C)NC(=O)[C@H](CO)NC(=O)[C@H](CO)NC(=O)[C@H](CO)NC(=O)[C@H](CO)NC(=O)[C@H](Cc1c[nH]cn1)NC(=O)[C@H](CCCNC(=N)N)NC(=O)[C@H](CC(C)C)NC(=O)[C@H](Cc1ccccc1)NC(=O)[C@H](CC(=O)O)NC(=O)[C@H](C)NC(=O)[C@H](CC(C)C)NC(=O)[C@H](CCCNC(=N)N)NC(=O)[C@H](CCC(N)=O)NC(=O)[C@@H](NC(=O)[C@H](C)NC(=O)[C@H](C)NC(=O)[C@@H](NC(=O)[C@H](CO)NC(=O)[C@H](CC(C)C)NC(=O)[C@H](CCC(N)=O)NC(=O)[C@H](CO)NC(=O)[C@H](C)NC(=O)CC[C@H](NC(=O)CCCCCCCCCCCCCCCCCCC(=O)O)C(=O)O)[C@@H](C)O)[C@@H](C)O)C(=O)N[C@@H](CC(C)C)C(=O)N1CCC[C@H]1C(=O)N1CCC[C@H]1C(=O)N[C@H](C(=O)N[C@@H](CC(N)=O)C(=O)N[C@H](C(=O)NCC(=O)N[C@@H](CO)C(=O)N[C@@H](CC(N)=O)C(=O)N[C@H](C(=O)N1C[C@H](O)C[C@H]1C(N)=O)[C@@H](C)O)C(C)C)[C@@H](C)O [M43] ({C20 diacid-γGlu}-ASQLSTAATQRLADFLRHSSSSLKPILPPTNVGSNT[Hyp]-NH2) the “Reduction in purity, 10 d” value ([3]; 10 d) was 3.6%, the “Reduction in purity, 20 d” value ([3]; 20 d) was 6.6% and the Relative activity (human amylin receptors) was 180%. The EC50 (human amylin receptors) was 0.05 nM, the “Body weight and food intake reduction compared with Cagrilintide” value ([4]; equivalent dosage) was “performed better than Cagrilintide at the equivalent dosage” and the “Effect on body weight” value [4, 7] was “dose-dependently reduced”. For the same molecule, the “Effect on food intake” value [4, 7] was “dose-dependently reduced”, the “Body weight and food intake reduction compared with Cagrilintide” value ([5]; equivalent dosage) was “performed better than Cagrilintide at the equivalent dosage” and the “Effect on body weight” value [5, 8] was “dose-dependently reduced”. The “Effect on food intake” value [5, 8] was “dose-dependently reduced”, the AUC(0-inf) (in vivo) was 217 µg·h/mL and the AUC(0-t) (in vivo) was 214 µg·h/mL. For the same molecule, the Cmax (in vivo) was 4930 ng/mL, the MRT inf (in vivo) was 39 h and the Tmax (in vivo) was 24 h. It also gave a half-life (in vivo) of 21.3 h.
In the case of CC[C@H](C)[C@H](NC(=O)[C@@H]1CCCN1C(=O)CNC(=O)[C@H](Cc1ccccc1)NC(=O)[C@H](CC(N)=O)NC(=O)[C@H](CC(N)=O)NC(=O)[C@H](CO)NC(=O)[C@H](CO)NC(=O)[C@H](Cc1c[nH]cn1)NC(=O)[C@@H](NC(=O)[C@H](CC(C)C)NC(=O)[C@H](Cc1ccccc1)NC(=O)[C@H](CC(N)=O)NC(=O)[C@H](C)NC(=O)[C@H](CC(C)C)NC(=O)[C@H](CCCNC(=N)N)NC(=O)[C@H](CCC(N)=O)NC(=O)[C@@H](NC(=O)[C@H](C)NC(=O)[C@@H]1CSSC[C@H](NC(=O)[C@@H](N)CCCCN)C(=O)N[C@@H](CC(N)=O)C(=O)N[C@@H]([C@@H](C)O)C(=O)N[C@@H](C)C(=O)N[C@@H]([C@@H](C)O)C(=O)N1)[C@@H](C)O)C(C)C)C(=O)N[C@@H](CC(C)C)C(=O)N1CCC[C@H]1C(=O)N1CCC[C@H]1C(=O)N[C@H](C(=O)N[C@@H](CC(N)=O)C(=O)N[C@H](C(=O)NCC(=O)N[C@@H](CO)C(=O)N[C@@H](CC(N)=O)C(=O)N[C@H](C(=O)N[C@@H](Cc1ccc(O)cc1)C(N)=O)[C@@H](C)O)C(C)C)[C@@H](C)O [Pramlintide], the fibrillation [6] is given as “fibrillates at pH 7”.
